Structures can show the parent of a compound that is named as a salt.

We go through three compounds from patent publication EP1428519A2, “5-Lipooxygenase inhibitors in deodorants and antiperspirants” (Henkel Kommanditgesellschaft auf Aktien, priority 2002, dated 2004).

This assay has as its target T1, 5-Lipoxigenase (Homo sapiens, UniProt P09917).
T1 construct: durch Ultraschallbehandlung aufgeschlossen; Größere Zellbestandteile wurden bei 100 000 g abzentrifugiert, wobei 5-Lipoxigenase im Überstand verblieb; endogenous in cells; sonicated; 100 000 g supernatant
T1 sequence (P09917 1-674): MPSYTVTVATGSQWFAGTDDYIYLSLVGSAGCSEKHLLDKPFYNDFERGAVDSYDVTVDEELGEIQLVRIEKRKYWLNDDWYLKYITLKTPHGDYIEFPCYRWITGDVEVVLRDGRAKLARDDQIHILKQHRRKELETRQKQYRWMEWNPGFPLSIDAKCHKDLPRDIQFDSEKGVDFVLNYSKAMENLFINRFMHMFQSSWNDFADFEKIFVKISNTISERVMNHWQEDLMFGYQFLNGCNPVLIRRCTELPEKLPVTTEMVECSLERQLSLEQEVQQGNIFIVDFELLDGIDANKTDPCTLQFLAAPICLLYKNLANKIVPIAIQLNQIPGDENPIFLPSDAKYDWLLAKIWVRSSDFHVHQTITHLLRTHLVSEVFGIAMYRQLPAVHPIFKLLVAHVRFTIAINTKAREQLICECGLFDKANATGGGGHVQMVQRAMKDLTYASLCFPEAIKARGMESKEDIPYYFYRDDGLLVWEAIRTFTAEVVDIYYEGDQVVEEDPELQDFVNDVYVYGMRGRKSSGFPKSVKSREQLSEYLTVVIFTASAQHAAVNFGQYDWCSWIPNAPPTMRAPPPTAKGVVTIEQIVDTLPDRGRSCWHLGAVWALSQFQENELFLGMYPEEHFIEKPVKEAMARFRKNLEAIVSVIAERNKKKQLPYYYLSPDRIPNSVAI
Briefly: 5-lipoxygenase inhibition in vitro (supernatant of differentiated leukaemia cells, leukotrienes quantified by HPLC). The class given is biochemical, menschlichen. Conditions: 100 µg raw material as is per ml supernatant; 30 s preincubation at 37° C, 10 min reaction with arachidonic acid; activity without test substance = 100 %; solvent per substance (Ethanol, Wasser or DMSO). From the text:
Die 5-Lipoxigenase wurde aus menschlichen Leukämie-Zelllinien durch Zugabe von Dimethylsulfoxid (DMSO), TGF-β1 (transforming growth factor β1) und Dihydroxyvitamin D3 differenziert und dabei zugleich die 5-Lipoxigenase induziert. Nach 4 Tagen im Differenzierungsmedium wurden die Zellen geerntet, in einem Glucose-haltigen PBS-Puffer aufgenommen und durch Ultraschallbehandlung aufgeschlossen. Größere Zellbestandteile wurden bei 100 000 g abzentrifugiert, wobei 5-Lipoxigenase im Überstand verblieb.
Die Bestimmung der 5-Lipoxigenase-Inhibitionswirkung erfolgte gemäß Werz et al., Naunyn-Schmiedeberg's Arch. Pharmacol., 1997, Vol. 456, 441 - 445.
Dem Überstand aus der 5-Lipoxigenase-Herstellung wurden Adenosintriphosphat (ATP) und die zu testenden Rohstoffe zugesetzt. Im vorliegenden Falle wurden 100 µg Rohstoff, so wie er ist, pro Milliliter Überstand eingesetzt. Als Lösemittel wurden je nach Substanz Wasser, Ethanol, DMSO oder Chloroform verwendet.
Die Ansätze wurden für 30 Sekunden bei 37° C vorinkubiert. Anschließend wurde die 5-Lipoxigenase-Reaktion durch Zusatz von Arachidonsäure gestartet. Nach 10 Minuten Reaktionszeit wurde die Reaktion durch Zugabe von Methanol gestoppt. Die durch die Einwirkung der 5-Lipoxigenase auf Arachidonsäure produzierten Leukotriene wurden mittels HPLC quantifiziert. Die Aktivität von 5-Lipoxigenase ohne Zugabe von Testsubstanz wurde zu 100 % gesetzt und die Aktivität der 5-Lipoxigenase mit Hemmstoff darauf bezogen. In Tabelle 1 ist die Hemmwirkung der einzelnen Testsubstanzen in % angegeben.
Regarding `CC[C@H](CC[C@@H](C)[C@H]1CC[C@H]2[C@@H]3CC=C4C[C@@H](OS(=O)(=O)O)CC[C@]4(C)[C@H]3CC[C@]12C)C(C)C` [Phytocohesine, Sodium Beta-Sitosteryl Sulfate], the Hemmwirkung was 62,8%.

With `CC(C)=CCCC(C)(O)C1CC=C(C)CC1` (stereo not drawn) [α-Bisabolol], the Hemmwirkung was 90,3%.

On to `O=C(O)CCCCC1CCSS1` (stereo not drawn) [α-Liponsäure, reference compound], for which the Hemmwirkung is 40,4%.
